Test results taken from PMC12888861, “Antibacterial activity of enmetazobactam against Acinetobacter spp.: a molecular dissection of mechanism of action and resistance determinants” (Antimicrobial Agents and Chemotherapy, 2025).

Test system: carbapenem-susceptible A. baumannii isolates (n = 54)
Test: MIC, broth microdilution (EUCAST), carbapenem-susceptible A. baumannii isolates
Format: cell-based, Acinetobacter baumannii
Details: for MIC: in combinations ETZ fixed at 8 mg/L
Source text: The bacterial strains used in this study comprised 208 clinical isolates from the Spanish National Acinetobacter spp. 2020 Multicenter Collection, which was previously characterized in detail by our research group, including whole-genome sequencing, phylogenetics studies, clonal dynamics, and resistance mechanisms ([2], [29]). Additionally, a collection of A. baumannii ATCC 17978 transformants coding the blaOXA-23, blaOXA-24/40, blaOXA-51, blaOXA-58, blaOXA-143, and blaOXA-201 genes, previously constructed and described by our group ([30]), was used to determine the activity of enmetazobactam against strains carrying the main CHDLs of A. baumannii.
The antimicrobial susceptibility of the 208 Acinetobacter spp. isolates was assessed using the broth microdilution method, as described in the European Committee on Antimicrobial Susceptibility Testing (EUCAST) v.15 guidelines (http://www.eucast.org/clinical_breakpoints). […] MICs for enmetazobactam alone were assessed as well. […] Subsequently, MIC testing was also conducted with a collection of A. baumannii ATCC 17978 transformants expressing clinically relevant OXA-like carbapenemase genes.
The A. baumannii ATCC 19606 strain was used as the reference strain in all susceptibility experiments, in duplicate assays. Antibiotics were purchased from Sigma-Aldrich, except enmetazobactam and durlobactam, which were obtained from Advanz Pharma and MedChemExpress, respectively.

[1] = Acinetobacter baumannii, carbapenem-susceptible A. baumannii isolates (n = 54), ETZ fixed 8 mg/L in combinations
[2] = […], ETZ fixed 8 mg/L in combinations

CO/N=C(\C(=O)N[C@@H]1C(=O)N2C(C(=O)[O-])=C(C[N+]3(C)CCCC3)CS[C@H]12)c1csc(N)n1 [cefepime]
MIC distribution 0.12: 0 | MIC (Acinetobacter baumannii, isolate Ab1, ST 164, ADC-6, OXA-91): 2 µg/mL | MIC (Acinetobacter baumannii, isolate Ab11, ST 239, ADC-2, OXA-51): 2 µg/mL | MIC (Acinetobacter baumannii, isolate Ab34, ST 2182, ADC-2, OXA-130): 2 µg/mL | MIC (Acinetobacter baumannii, isolate Ab38, ST 866, ADC-2, OXA-385): 8 µg/mL | MIC (Acinetobacter baumannii, isolate Ab40, ST 2176, ADC-2, OXA-64): 2 µg/mL | MIC (Acinetobacter baumannii, isolate Ab50, ST 2176, ADC-2, OXA-64): 2 µg/mL | MIC (Acinetobacter baumannii, isolate Ab57, ST 1470, ADC-58, OXA-106): 2 µg/mL | MIC (Acinetobacter baumannii, isolate Ab58, ST 6, ADC-2, OXA-94): 4 µg/mL | MIC (Acinetobacter baumannii, isolate Ab61, ST 1639, ADC-7, OXA-64): 1 µg/mL | MIC (Acinetobacter baumannii, isolate Ab62, ST 265, ADC-2, OXA-91): 1 µg/mL | MIC (Acinetobacter baumannii, isolate Ab67, ST 1, ADC-11, OXA-69): 2 µg/mL | MIC (Acinetobacter baumannii, isolate Ab79, ST 106, ADC-11, OXA-78): 1 µg/mL | MIC (Acinetobacter baumannii, isolate Ab80, ST 2182, ADC-6, OXA-208): 1 µg/mL | MIC (Acinetobacter baumannii, isolate Ab81, ST 25, ADC-79, OXA-64): 2 µg/mL | MIC (Acinetobacter baumannii, isolate Ab93, ST 25, ADC-79, OXA-64): 2 µg/mL | MIC (Acinetobacter baumannii, isolate Ab95, ST 582, ADC-5, OXA-317): 2 µg/mL | MIC (Acinetobacter baumannii, isolate Ab96, ST 582, ADC-5, OXA-317): 1 µg/mL | MIC (Acinetobacter baumannii, isolate Ab100, ST 145, ADC-58, OXA-343): 2 µg/mL | MIC (Acinetobacter baumannii, isolate Ab110, ST 1623, ADC-3, OXA-70): 8 µg/mL | MIC (Acinetobacter baumannii, isolate Ab112, ST 193, ADC-like, OXA-120): 0.5 µg/mL | MIC (Acinetobacter baumannii, isolate Ab124, ST 2176, ADC-2, OXA-64): 1 µg/mL | MIC (Acinetobacter baumannii, isolate Ab127, ST 2176, ADC-2, OXA-64): 2 µg/mL | MIC (Acinetobacter baumannii, isolate Ab128, ST 2176, ADC-2, OXA-64): 1 µg/mL | MIC (Acinetobacter baumannii, isolate Ab130, ST 32, ADC-79, OXA-100): 4 µg/mL | MIC (Acinetobacter baumannii, isolate Ab131, ST 687, ADC-like, OXA-208): 0.5 µg/mL | MIC (Acinetobacter baumannii, isolate Ab132, ST 1112, ADC-79, OXA-89): 4 µg/mL | MIC (Acinetobacter baumannii, isolate Ab136, ST 2183, ADC-like, OXA-66): 2 µg/mL | MIC (Acinetobacter baumannii, isolate Ab139, ST 54, ADC-like, OXA-365): 2 µg/mL | MIC (Acinetobacter baumannii, isolate Ab142, ST 1, ADC-like, OXA-69): 16 µg/mL | MIC (Acinetobacter baumannii, isolate Ab143, ST 1328, ADC-76, OXA-408): 2 µg/mL | MIC (Acinetobacter baumannii, isolate Ab149, ST 1112, ADC-6, OXA-407): 2 µg/mL | MIC (Acinetobacter baumannii, isolate Ab150, ST 2184, ADC-like, OXA-64): 2 µg/mL | MIC (Acinetobacter baumannii, isolate Ab152, ST 132, ADC-2, OXA-120): 2 µg/mL | MIC (Acinetobacter baumannii, isolate Ab158, ST 2034, ADC-2, OXA-217): 0.5 µg/mL | MIC (Acinetobacter baumannii, isolate Ab163, ST 132, ADC-2, OXA-120): 0.5 µg/mL | MIC (Acinetobacter baumannii, isolate Ab167, ST 1623, ADC-like, OXA-345): 1 µg/mL | MIC (Acinetobacter baumannii, isolate Ab168, ST 1470, ADC-75, OXA-402): 1 µg/mL | MIC (Acinetobacter baumannii, isolate Ab170, ST 2110, ADC-4, OXA-338): 2 µg/mL | MIC (Acinetobacter baumannii, isolate Ab172, ST 2185, ADC-5, OXA-217): 1 µg/mL | MIC (Acinetobacter baumannii, isolate Ab185, ST 2, ADC-26, OXA-66): 4 µg/mL | MIC (Acinetobacter baumannii, isolate Ab187, ST 105, ADC-2, OXA-430): 0.5 µg/mL | MIC (Acinetobacter baumannii, isolate Ab188, ST 203, ADC-6, OXA-217, PDC-1): 0.5 µg/mL | MIC (Acinetobacter baumannii, isolate Ab189, ST 1405, ADC-3, OXA-120): 1 µg/mL | MIC (Acinetobacter baumannii, isolate Ab190, ST 2186, ADC-6, OXA-413): 1 µg/mL | MIC (Acinetobacter baumannii, isolate Ab193, ST 164, ADC-6, OXA-91): 1 µg/mL | MIC (Acinetobacter baumannii, isolate Ab195, ST 1, ADC-11, OXA-69): 2 µg/mL | MIC (Acinetobacter baumannii, isolate Ab200, ST 1336, ADC-2, OXA-51): 2 µg/mL | MIC (Acinetobacter baumannii, isolate Ab202, ST 1, ADC-11, OXA-69): 2 µg/mL | MIC (Acinetobacter baumannii, isolate Ab203, ST 221, ADC-6, OXA-88): 1 µg/mL | MIC (Acinetobacter baumannii, isolate Ab206, ST 2187, ADC-58, OXA-69): 1 µg/mL | MIC (Acinetobacter baumannii, isolate Ab209): 1 µg/mL | MIC (Acinetobacter baumannii, isolate Ab213): 1 µg/mL | MIC (Acinetobacter baumannii, isolate Ab218): 2 µg/mL | MIC (Acinetobacter baumannii, isolate Ab220): 0.5 µg/mL | MIC50 [1]: 4 µg/mL | MIC90 [1]: 8 µg/mL | MIC distribution 0.25 [2]: 0 | MIC distribution 0.5 [2]: 0 | MIC distribution 1 [2]: 13.0 | MIC distribution 2 [2]: 44.4 | MIC distribution 4 [2]: 87.0 | MIC distribution 8 [2]: 94.4 | MIC distribution 16 [2]: 98.1 | MIC distribution ≤0.06 [2]: 0 | MIC distribution ≥32 [2]: 100
